Among the test systems are HCC-2998 colon; NCI-H522 lung; HOP-62 NSCLC; HCT-15 colon; A549 NSCLC; MDA-MB-435; SN12C renal; MALME-3M melanoma; SK-MEL-2 melanoma; U251 CNS.
Test in all cases: growth of human tumour cells (NCI), 48 h

“And” between values parts separate entries of the source, which are not always exact repeats. Identical values can stand only once.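 Where inhibition never reached the appropriate level, the endpoint shown equals the highest concentration tested. Otherwise, values were interpolated linearly from a five-concentration, 48-hour dose response in 96-well plates. GI50 is the concentration that inhibits growth by half. Definition used: TGI = concentration required for complete inhibition of growth.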

For `CSc1ccc(NC(=O)Nc2cc(C)ccn2)cc1`, the TGI in the test on HCC-2998 colon, in the test with NCI-H522 lung, in the test on HOP-62 NSCLC, in the test with HCT-15 colon, with A549 NSCLC and with MDA-MB-435 was > 100 µM each time. The TGI with SN12C renal, with MALME-3M melanoma, in the test on SK-MEL-2 melanoma and in the test on U251 CNS was > 100 µM in each case.

On to `C[C@H]1COCCN1c1nc(-c2cnc(N)cc2C(F)F)nc(N2CCOCC2)n1`, for which the GI50 is 0.186 µM in the test on HCC-2998 colon; 0.148 µM with NCI-H522 lung; 0.414 µM in the test with HOP-62 NSCLC; 0.183 µM in the test on HCT-15 colon; 0.199 µM with A549 NSCLC; 0.182 µM with MDA-MB-435. Further, the GI50 in the test with SN12C renal is 0.159 µM; in the test on MALME-3M melanoma, 0.104 µM; in the test with SK-MEL-2 melanoma, 0.232 µM; in the test with U251 CNS it was 0.368 µM. Also, the TGI in the test on HCC-2998 colon was 15.1 µM; in the test with NCI-H522 lung, > 60.8 µM; in the test with HOP-62 NSCLC, > 100 µM; in the test with HCT-15 colon, > 100 µM; in the test with A549 NSCLC, > 100 µM; in the test with MDA-MB-435 it was 5.27 µM. In addition, the TGI in the test on SN12C renal is > 100 µM; with MALME-3M melanoma it was 0.721 µM; in the test on SK-MEL-2 melanoma, 1.12 µM; with U251 CNS, > 100 µM.

`C=C1C(=O)O[C@H]2[C@H]1CC/C(COC(=O)CCCCCCCC(=O)OC/C1=C/CC[C@@]3(C)O[C@H]3[C@H]3OC(=O)C(=C)[C@@H]3CC1)=C\CC[C@@]1(C)O[C@@H]21`: the GI50 is 1.9 µM with HCC-2998 colon; 1.97 µM in the test on NCI-H522 lung; 2.19 µM in the test with HOP-62 NSCLC; 1.75 µM in the test on HCT-15 colon; 11.1 µM in the test with A549 NSCLC; 2.59 µM in the test with MDA-MB-435. For the same molecule, the GI50 in the test on SN12C renal is 2.75 µM; with MALME-3M melanoma it was 2.17 µM; in the test on SK-MEL-2 melanoma, 11.3 µM; with U251 CNS, 2.13 µM. Further, the TGI came to 3.88 µM with HCC-2998 colon; 3.92 µM in the test on NCI-H522 lung; 5.68 µM with HOP-62 NSCLC; 4.16 µM with HCT-15 colon; 28.8 µM in the test on A549 NSCLC; 7.33 µM with MDA-MB-435. For the same molecule, the TGI with SN12C renal was found to be 9.33 µM; in the test on MALME-3M melanoma, 5.3 µM; in the test on SK-MEL-2 melanoma it was 31.5 µM; in the test on U251 CNS, 5.37 µM.

Take `Oc1ccc(Cl)cc1Sc1cc(Cl)ccc1O`: the GI50 was 3.92 µM in the test on HCC-2998 colon; 2.41 µM in the test with NCI-H522 lung; 3.04 µM in the test with HOP-62 NSCLC; 3.19 µM in the test on HCT-15 colon; 3.91 µM in the test on A549 NSCLC; 2.79 µM with MDA-MB-435. For the same molecule, the GI50 in the test on SN12C renal was 3.16 µM; in the test on MALME-3M melanoma, 2.41 µM; with SK-MEL-2 melanoma, 2.17 µM; in the test on U251 CNS, 3.31 µM. The TGI was 14.8 µM in the test on HCC-2998 colon; 13.6 µM and 9.17 µM in the test with NCI-H522 lung; 32.9 µM and 12 µM in the test with HOP-62 NSCLC; 45.5 µM and 11.4 µM in the test with HCT-15 colon; 58.6 µM and 13.7 µM in the test with A549 NSCLC; 23.9 µM and 9.08 µM in the test on MDA-MB-435. For the same molecule, the TGI was 27.4 µM and 10.4 µM in the test with SN12C renal; 20.3 µM and 6.81 µM in the test with MALME-3M melanoma; 24.2 µM and 5.56 µM with SK-MEL-2 melanoma; 22.1 µM and 12.2 µM in the test with U251 CNS.

On to `Cc1cc(Cl)nc(N(CCCNc2ccnc3cc(Cl)ccc23)Cc2cccs2)n1`, for which the GI50 is 2.09 µM in the test with HCC-2998 colon; 1.31 µM with NCI-H522 lung; 1.83 µM with HOP-62 NSCLC; 1.43 µM with HCT-15 colon; 2.96 µM in the test on A549 NSCLC; 1.94 µM with MDA-MB-435. Further, the GI50 with SN12C renal was 1.4 µM; in the test on MALME-3M melanoma it was 1.64 µM; in the test on SK-MEL-2 melanoma, 2.29 µM; in the test with U251 CNS, 2.18 µM. Further, the TGI in the test on HCC-2998 colon came out at 6.12 µM; in the test with NCI-H522 lung, 4.31 µM; with HOP-62 NSCLC, 10.7 µM; in the test on HCT-15 colon, 10.1 µM; with A549 NSCLC, 12.5 µM; in the test with MDA-MB-435, 6.09 µM. In addition, the TGI stood at 12.5 µM in the test on SN12C renal, 3.46 µM with MALME-3M melanoma, 6.54 µM in the test with SK-MEL-2 melanoma and 10.2 µM with U251 CNS.

For the molecule `CCC[n+]1cc2cc3c(cc2c2c1-c1cc4c(cc1C2)OCO4)OCO3` (tested in a mixture with another compound), the GI50 is 0.504 µM in the test on HCC-2998 colon; 0.546 µM in the test on HOP-62 NSCLC; 28.2 µM in the test on HCT-15 colon; 2.77 µM in the test on A549 NSCLC; 0.785 µM in the test with MDA-MB-435; 0.0664 µM in the test on SN12C renal. In addition, the GI50 in the test with MALME-3M melanoma was 0.29 µM; with SK-MEL-2 melanoma, 0.53 µM; in the test on U251 CNS it was 0.229 µM. The TGI with HCC-2998 colon was 2.14 µM; with NCI-H522 lung it was 2.08 µM; in the test with HOP-62 NSCLC it was 6.53 µM; in the test with HCT-15 colon, > 100 µM; in the test with A549 NSCLC, > 52.4 µM; in the test with MDA-MB-435 it was 2.29 µM. Also, the TGI in the test with SN12C renal amounted to 0.777 µM; with MALME-3M melanoma, 1.53 µM; with SK-MEL-2 melanoma, 2.35 µM; with U251 CNS, 3.32 µM.

For the molecule `CCN(CC)S(=O)(=O)c1cccc(-c2ccc3c(NC(=O)C4CC4)n[nH]c3c2)c1`, the GI50 with HCC-2998 colon is > 6.25 µM; in the test on NCI-H522 lung it was 1.08 µM; in the test with HOP-62 NSCLC, 2.54 µM; in the test on HCT-15 colon it was 2.4 µM; with A549 NSCLC, 2.79 µM; in the test with MDA-MB-435, 0.283 µM. Further, the GI50 in the test with SN12C renal was 3.77 µM; in the test on MALME-3M melanoma, 1.46 µM; in the test with SK-MEL-2 melanoma, 1.85 µM; with U251 CNS it was 2.1 µM. For the same molecule, the TGI in the test on HCC-2998 colon, in the test on NCI-H522 lung, in the test on HOP-62 NSCLC, in the test with HCT-15 colon, in the test on A549 NSCLC and in the test with MDA-MB-435 was > 6.25 µM throughout. Also, the TGI in the test with SN12C renal, with MALME-3M melanoma, in the test with SK-MEL-2 melanoma and in the test with U251 CNS was > 6.25 µM in each case.

Turning to `CN(C)c1cc2c(Nc3ccc4c(cnn4Cc4ccccc4)c3)ncnc2cn1`, the GI50 is 10.8 µM with HCC-2998 colon; 1.82 µM in the test with NCI-H522 lung; 8.35 µM with HOP-62 NSCLC; 9.6 µM with HCT-15 colon; 7.49 µM with A549 NSCLC; 10.5 µM in the test on MDA-MB-435. Moreover, the GI50 with SN12C renal is 12.1 µM; in the test with MALME-3M melanoma, 12.9 µM; in the test on SK-MEL-2 melanoma it was 7.5 µM; in the test on U251 CNS it was 7.8 µM. Further, the TGI was > 25 µM in the test with HCC-2998 colon; > 25 µM in the test on NCI-H522 lung; > 23.9 µM in the test on HOP-62 NSCLC; > 25 µM in the test with HCT-15 colon; > 25 µM with A549 NSCLC; > 25 µM with MDA-MB-435. For the same molecule, the TGI in the test with SN12C renal was > 25 µM; in the test with MALME-3M melanoma, > 25 µM; in the test on SK-MEL-2 melanoma, 20.9 µM; in the test on U251 CNS it was 24.4 µM.

Values taken from PubChem BioAssay (NCI).
